In patent publication US12146177B2, “Methods of making and using E,Z,E-geranylgeranyl diphosphate” (WiSys Technology Foundation, Inc., priority 2020, dated 2024):

System: Escherichia coli C41
Assay type: cell-based
Details: compound itself not applied to cells

CC(C)=CCC/C(C)=C/CC/C(C)=C\CC/C(C)=C/COP(=O)(O)OP(=O)(O)O [E,Z,E-GGPP, E,Z,E-Geranylgeranyl pyrophosphate]
bactericidal effect on E. coli: bactericidal agent
